Laboratory results as given in ChEMBL document CHEMBL1687865, “Antifungal lipopeptides from Bacillus amyloliquefaciens strain BO7” (J Nat Prod, 2011).
In brackets after ≈: the same amount, converted by molar mass. *1 amine or outer side, *2 acyl side, *3 side chain or, on linkers, in order; H or OH if unused. Where a SMILES comes first, the peptide text is derived from it. Bridges are numbered along the chain shown (N, C = ends). X1 = CCCCCCCCCCCCCCC[C@H](CC(=O)[*:1])O[*:2]; X2 = CCCCCCCCCCCCCC[C@H](CC(=O)[*:1])O[*:2]; X3 = CCCCCCCCCCCCC[C@H](CC(=O)[*:1])O[*:2]

How the values were obtained:
[1] = Antifungal activity against Fusarium oxysporum f. sp. lycopersici 4287 assessed as reduction in mycelium growth at 100 ppm after 72 hrs by spectrophotometric analysis; format: functional; design: scale not given: the % may be the effect or the level left
[2] = Antifungal activity against Fusarium oxysporum f. sp. lycopersici 4287 assessed as reduction in mycelium growth at 50 ppm after 72 hrs by spectrophotometric analysis; format: functional; design: scale not given: the % may be the effect or the level left
[3] = tested on: Penicillium digitatum; test: […] activity against Penicillium digitatum; format: functional, organism-based

| Structure (SMILES) | Activity [1] [%] | Activity [2] [%] | EC50 [3] [µg/mL] |
| --- | --- | --- | --- |
| CCCCCCCCCCCCCC[C@@H]1CC(=O)N[C@@H](CCC(=O)O)C(=O)N[C@@H](CC(C)C)C(=O)N[C@@H](CC(C)C)C(=O)N[C@@H](C)C(=O)N[C@@H](CC(=O)O)C(=O)N[C@@H](CC(C)C)C(=O)N[C@@H](CC(C)C)C(=O)O1 (ELLADLL; linker N-C via X2) | 11 |  |  |
| CCCCCCCCCCCCCCC[C@@H]1CC(=O)N[C@@H](CCC(=O)O)C(=O)N[C@@H](CC(C)C)C(=O)N[C@@H](CC(C)C)C(=O)N[C@@H](C)C(=O)N[C@@H](CC(=O)O)C(=O)N[C@@H](CC(C)C)C(=O)N[C@@H](CC(C)C)C(=O)O1 (ELLADLL; linker N-C via X1) | 56 | 25 | 88.5 (≈ 84.2 µM) |
| CCCCCCCCCCCCC[C@@H]1CC(=O)N[C@@H](CCC(=O)O)C(=O)N[C@@H](CC(C)C)C(=O)N[C@@H](CC(C)C)C(=O)N[C@@H](C)C(=O)N[C@@H](CC(=O)O)C(=O)N[C@@H](CC(C)C)C(=O)N[C@@H](CC(C)C)C(=O)O1 (ELLADLL; linker N-C via X3) | 29 |  |  |
